Assay results as given in BigSolDB 2.1.

O=C1CCCC(=O)C1
solubility (mole fraction)
Conditions | 288.15 K | 293.15 K | 298.15 K | 303.15 K | 308.15 K | 313.15 K | 318.15 K | 323.15 K | 328.15 K
in 2-butanone | 0.0273 | 0.0355 | 0.0534 | 0.0727 | 0.0991 | 0.133 | 0.162 | 0.215 | 0.264
in THF | 0.0855 | 0.109 | 0.135 | 0.164 | 0.208 | 0.246 | 0.307 | 0.347 | 0.392
in acetone | 0.0488 | 0.0624 | 0.0834 | 0.108 | 0.132 | 0.173 | 0.211 | 0.245 | 0.282
in acetonitrile | 0.0156 | 0.0198 | 0.0258 | 0.035 | 0.044 | 0.0538 | 0.0685 | 0.09 | 0.113
in chloroform | 0.238 | 0.256 | 0.29 | 0.317 | 0.364 | 0.4 | 0.432 | 0.47 | 0.505
in ethyl acetate | 0.0126 | 0.0155 | 0.0194 | 0.0244 | 0.0307 | 0.039 | 0.0515 | 0.0626 | 0.0819
in ethyl butyrate | 0.0083 | 0.0103 | 0.0125 | 0.0148 | 0.0184 | 0.0221 | 0.0266 | 0.0322 | 0.0379
in ethyl formate | 0.0109 | 0.0141 | 0.0182 | 0.0231 | 0.0287 | 0.0359 | 0.0492 | 0.0591 | 0.0694
in ethyl propionate | 0.0118 | 0.0139 | 0.017 | 0.0203 | 0.0246 | 0.0294 | 0.0353 | 0.041 | 0.0495
in isopropyl acetate | 0.0125 | 0.0146 | 0.017 | 0.0194 | 0.0228 | 0.0269 | 0.0302 | 0.0368 | 0.0424
in methyl acetate | 0.0146 | 0.02 | 0.0247 | 0.0313 | 0.0406 | 0.0524 | 0.0714 | 0.0886 | 0.105
in n-butyl acetate | 0.0119 | 0.0141 | 0.0168 | 0.0202 | 0.0237 | 0.0282 | 0.0347 | 0.0403 | 0.0457
in n-propyl acetate | 0.0121 | 0.0147 | 0.0176 | 0.0214 | 0.0263 | 0.0324 | 0.0381 | 0.0457 | 0.0535
in toluene | 0.00171 | 0.00244 | 0.00335 | 0.00445 | 0.00577 | 0.00803 | 0.0106 | 0.0136 | 0.0165
